# Measured values taken from ChEMBL document CHEMBL5291721, “A preclinical secondary pharmacology resource illuminates target-adverse drug reaction associations of marketed drugs” (Nat Commun, 2023).
# What was measured:
# [1] = molecular target: Epidermal growth factor receptor (Homo sapiens, UniProt P00533); assay type: functional
# [2] = molecular target: T1, Peroxisome proliferator-activated receptor gamma (Homo sapiens, UniProt P37231); assay type: functional
# T1 sequence (P37231 whole entry): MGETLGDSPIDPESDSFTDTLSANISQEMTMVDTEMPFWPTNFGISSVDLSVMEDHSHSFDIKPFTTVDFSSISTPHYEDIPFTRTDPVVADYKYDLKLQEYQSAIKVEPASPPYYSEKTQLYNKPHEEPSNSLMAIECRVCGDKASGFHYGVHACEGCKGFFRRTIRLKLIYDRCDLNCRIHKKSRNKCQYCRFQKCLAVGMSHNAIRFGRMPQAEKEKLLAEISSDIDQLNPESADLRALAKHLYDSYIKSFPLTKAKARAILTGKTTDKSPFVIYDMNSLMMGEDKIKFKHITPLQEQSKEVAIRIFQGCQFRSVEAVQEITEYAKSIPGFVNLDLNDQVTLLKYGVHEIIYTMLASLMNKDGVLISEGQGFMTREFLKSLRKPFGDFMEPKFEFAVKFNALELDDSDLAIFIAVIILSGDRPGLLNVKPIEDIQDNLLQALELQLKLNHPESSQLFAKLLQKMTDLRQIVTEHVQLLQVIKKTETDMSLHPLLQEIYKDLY
# Acetylcholinesterase = Acetylcholinesterase (Homo sapiens, UniProt P22303); assay type: functional
# D(1A) dopamine receptor = D(1A) dopamine receptor (Homo sapiens, UniProt P21728); assay type: functional, cell-based
# Thromboxane A2 receptor = molecular target: T2, Thromboxane A2 receptor (Homo sapiens, UniProt P21731); assay type: functional, cell-based
# T2 sequence (P21731 whole entry): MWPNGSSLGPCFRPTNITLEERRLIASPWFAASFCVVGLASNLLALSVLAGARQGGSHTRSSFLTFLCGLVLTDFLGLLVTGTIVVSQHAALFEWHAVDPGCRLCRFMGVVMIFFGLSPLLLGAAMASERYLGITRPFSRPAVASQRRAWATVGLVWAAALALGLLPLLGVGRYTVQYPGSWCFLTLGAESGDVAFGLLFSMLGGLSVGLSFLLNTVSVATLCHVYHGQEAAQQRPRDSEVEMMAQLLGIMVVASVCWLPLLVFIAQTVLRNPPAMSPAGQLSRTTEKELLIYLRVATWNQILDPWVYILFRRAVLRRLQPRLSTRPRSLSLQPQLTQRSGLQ
# [3] = molecular target: Receptor tyrosine-protein kinase erbB-2 (Homo sapiens, UniProt P04626); assay type: functional
# Sequence of Receptor tyrosine-protein kinase erbB-2 (P04626 whole entry): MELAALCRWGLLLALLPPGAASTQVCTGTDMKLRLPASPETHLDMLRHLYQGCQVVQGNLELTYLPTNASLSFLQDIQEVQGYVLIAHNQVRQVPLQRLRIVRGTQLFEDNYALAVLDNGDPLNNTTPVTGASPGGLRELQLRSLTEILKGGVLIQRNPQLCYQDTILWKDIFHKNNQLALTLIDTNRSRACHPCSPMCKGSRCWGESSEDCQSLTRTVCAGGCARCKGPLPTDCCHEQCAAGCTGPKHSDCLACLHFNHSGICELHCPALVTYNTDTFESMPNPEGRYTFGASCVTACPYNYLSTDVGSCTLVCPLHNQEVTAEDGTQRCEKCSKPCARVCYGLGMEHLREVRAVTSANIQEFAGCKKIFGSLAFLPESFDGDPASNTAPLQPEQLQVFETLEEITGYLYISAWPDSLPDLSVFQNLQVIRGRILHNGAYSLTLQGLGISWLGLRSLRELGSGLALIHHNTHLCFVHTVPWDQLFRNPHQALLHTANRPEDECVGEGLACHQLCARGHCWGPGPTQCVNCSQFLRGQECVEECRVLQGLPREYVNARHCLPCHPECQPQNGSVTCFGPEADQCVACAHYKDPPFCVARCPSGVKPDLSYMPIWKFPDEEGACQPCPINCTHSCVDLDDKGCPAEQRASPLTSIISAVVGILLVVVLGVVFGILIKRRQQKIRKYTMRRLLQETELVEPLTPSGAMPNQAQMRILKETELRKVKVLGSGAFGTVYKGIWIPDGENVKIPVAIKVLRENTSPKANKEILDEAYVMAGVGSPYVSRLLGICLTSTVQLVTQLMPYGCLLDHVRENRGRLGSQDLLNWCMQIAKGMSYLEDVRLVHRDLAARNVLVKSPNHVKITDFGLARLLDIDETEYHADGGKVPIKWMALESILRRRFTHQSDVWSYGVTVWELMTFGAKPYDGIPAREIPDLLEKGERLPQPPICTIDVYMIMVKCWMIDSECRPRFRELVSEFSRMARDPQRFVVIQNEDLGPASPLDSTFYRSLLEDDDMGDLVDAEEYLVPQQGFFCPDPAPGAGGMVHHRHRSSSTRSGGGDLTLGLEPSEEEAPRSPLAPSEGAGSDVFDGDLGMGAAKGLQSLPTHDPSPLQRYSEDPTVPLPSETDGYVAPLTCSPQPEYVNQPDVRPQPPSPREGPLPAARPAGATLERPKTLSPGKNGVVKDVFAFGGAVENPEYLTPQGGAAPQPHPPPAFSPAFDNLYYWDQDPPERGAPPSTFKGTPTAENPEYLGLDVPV
# [4] = molecular target: Vascular endothelial growth factor receptor 2 (Homo sapiens, UniProt P35968); assay type: functional
# Glucocorticoid receptor = molecular target: T3, Glucocorticoid receptor (Homo sapiens, UniProt P04150); assay type: functional
# T3 sequence (P04150 whole entry): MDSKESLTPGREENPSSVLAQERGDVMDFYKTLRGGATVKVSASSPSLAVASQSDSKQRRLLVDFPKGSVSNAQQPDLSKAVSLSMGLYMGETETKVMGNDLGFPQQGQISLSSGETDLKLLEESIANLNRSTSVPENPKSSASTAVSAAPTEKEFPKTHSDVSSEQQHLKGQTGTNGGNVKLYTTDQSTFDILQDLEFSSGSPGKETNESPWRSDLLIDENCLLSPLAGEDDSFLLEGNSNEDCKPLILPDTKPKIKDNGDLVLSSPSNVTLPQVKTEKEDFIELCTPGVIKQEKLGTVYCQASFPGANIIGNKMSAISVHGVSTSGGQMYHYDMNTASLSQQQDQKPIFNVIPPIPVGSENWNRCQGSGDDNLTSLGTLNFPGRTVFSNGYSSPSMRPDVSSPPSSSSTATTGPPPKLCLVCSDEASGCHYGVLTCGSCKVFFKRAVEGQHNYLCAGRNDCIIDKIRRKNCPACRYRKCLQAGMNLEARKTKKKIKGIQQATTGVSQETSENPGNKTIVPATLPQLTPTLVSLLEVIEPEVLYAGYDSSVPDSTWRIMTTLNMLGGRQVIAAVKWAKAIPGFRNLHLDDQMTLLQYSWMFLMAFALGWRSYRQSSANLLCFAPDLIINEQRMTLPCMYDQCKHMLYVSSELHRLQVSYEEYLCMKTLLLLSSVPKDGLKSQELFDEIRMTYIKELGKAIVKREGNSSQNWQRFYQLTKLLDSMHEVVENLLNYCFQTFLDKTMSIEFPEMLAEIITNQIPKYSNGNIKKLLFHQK
# [5] = molecular target: Sodium channel protein type 5 subunit alpha (Homo sapiens, UniProt Q14524); assay type: functional, cell-based
# Sequence of Sodium channel protein type 5 subunit alpha (Q14524 whole entry): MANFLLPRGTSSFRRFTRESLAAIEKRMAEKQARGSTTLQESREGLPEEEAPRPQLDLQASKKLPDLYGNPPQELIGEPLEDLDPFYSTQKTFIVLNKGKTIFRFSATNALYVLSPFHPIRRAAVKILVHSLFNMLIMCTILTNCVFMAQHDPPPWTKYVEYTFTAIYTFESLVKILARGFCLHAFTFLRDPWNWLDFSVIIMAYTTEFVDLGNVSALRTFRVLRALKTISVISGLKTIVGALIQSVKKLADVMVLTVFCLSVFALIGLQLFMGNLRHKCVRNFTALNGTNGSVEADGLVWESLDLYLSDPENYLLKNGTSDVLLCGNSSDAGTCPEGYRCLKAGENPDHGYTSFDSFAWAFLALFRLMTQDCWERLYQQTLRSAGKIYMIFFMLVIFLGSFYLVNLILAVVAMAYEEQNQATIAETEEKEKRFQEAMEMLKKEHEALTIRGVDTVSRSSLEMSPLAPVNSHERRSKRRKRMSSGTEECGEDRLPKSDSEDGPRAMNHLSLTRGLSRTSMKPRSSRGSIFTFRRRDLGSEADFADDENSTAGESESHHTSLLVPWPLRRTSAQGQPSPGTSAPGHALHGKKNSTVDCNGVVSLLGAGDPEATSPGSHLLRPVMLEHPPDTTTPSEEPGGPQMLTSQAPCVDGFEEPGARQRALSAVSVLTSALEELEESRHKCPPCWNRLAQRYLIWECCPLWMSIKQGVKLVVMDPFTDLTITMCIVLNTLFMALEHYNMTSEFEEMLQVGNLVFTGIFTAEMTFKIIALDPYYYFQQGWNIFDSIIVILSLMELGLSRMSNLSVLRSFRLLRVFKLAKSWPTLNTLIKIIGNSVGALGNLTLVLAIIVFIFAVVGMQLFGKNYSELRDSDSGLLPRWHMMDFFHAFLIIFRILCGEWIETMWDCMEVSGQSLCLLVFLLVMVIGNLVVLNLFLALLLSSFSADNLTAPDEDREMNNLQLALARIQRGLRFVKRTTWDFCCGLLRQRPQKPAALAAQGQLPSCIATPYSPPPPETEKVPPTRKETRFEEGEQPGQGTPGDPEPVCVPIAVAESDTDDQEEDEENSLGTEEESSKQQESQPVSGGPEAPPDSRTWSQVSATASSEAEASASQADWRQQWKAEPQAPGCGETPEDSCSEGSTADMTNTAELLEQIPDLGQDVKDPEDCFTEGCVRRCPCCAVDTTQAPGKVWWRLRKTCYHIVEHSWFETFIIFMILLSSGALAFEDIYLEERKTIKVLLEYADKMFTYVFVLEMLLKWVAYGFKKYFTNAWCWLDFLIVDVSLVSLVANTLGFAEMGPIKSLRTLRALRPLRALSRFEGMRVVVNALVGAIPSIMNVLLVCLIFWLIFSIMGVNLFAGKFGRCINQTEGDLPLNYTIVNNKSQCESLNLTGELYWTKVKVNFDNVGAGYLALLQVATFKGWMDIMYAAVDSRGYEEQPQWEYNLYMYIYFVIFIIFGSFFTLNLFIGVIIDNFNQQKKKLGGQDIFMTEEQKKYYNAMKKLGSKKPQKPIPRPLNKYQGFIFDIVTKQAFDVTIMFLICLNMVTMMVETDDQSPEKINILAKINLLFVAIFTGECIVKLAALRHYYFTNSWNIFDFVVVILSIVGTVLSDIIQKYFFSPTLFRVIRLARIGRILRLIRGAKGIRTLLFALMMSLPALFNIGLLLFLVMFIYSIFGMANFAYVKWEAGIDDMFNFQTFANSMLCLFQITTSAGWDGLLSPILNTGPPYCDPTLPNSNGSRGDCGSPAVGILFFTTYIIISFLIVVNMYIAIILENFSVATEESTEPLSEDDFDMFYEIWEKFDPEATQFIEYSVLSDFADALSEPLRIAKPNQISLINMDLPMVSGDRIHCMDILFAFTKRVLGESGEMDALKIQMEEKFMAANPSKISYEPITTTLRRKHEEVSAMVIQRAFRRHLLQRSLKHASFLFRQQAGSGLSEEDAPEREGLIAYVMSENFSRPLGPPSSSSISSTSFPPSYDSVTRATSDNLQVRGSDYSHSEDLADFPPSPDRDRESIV
# [6] = molecular target: Synaptic vesicular amine transporter (Rattus norvegicus, UniProt Q01827); assay type: functional
# Sequence of Synaptic vesicular amine transporter (Q01827 whole entry): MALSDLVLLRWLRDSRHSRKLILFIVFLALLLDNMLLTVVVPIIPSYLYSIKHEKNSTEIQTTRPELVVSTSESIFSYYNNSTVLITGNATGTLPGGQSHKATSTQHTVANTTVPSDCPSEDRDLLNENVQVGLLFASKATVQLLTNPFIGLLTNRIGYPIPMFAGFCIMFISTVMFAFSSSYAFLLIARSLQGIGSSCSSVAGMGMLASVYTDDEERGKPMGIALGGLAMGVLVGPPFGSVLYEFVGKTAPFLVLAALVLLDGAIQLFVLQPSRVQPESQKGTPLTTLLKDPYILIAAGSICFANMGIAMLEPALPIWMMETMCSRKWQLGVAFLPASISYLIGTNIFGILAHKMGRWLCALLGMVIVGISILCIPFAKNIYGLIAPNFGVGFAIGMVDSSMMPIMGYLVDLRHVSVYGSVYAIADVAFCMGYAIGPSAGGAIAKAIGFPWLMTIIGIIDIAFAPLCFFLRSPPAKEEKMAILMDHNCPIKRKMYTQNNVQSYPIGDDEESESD
# Further: assay procedure not described here.
# Sequence of Epidermal growth factor receptor (P00533 whole entry): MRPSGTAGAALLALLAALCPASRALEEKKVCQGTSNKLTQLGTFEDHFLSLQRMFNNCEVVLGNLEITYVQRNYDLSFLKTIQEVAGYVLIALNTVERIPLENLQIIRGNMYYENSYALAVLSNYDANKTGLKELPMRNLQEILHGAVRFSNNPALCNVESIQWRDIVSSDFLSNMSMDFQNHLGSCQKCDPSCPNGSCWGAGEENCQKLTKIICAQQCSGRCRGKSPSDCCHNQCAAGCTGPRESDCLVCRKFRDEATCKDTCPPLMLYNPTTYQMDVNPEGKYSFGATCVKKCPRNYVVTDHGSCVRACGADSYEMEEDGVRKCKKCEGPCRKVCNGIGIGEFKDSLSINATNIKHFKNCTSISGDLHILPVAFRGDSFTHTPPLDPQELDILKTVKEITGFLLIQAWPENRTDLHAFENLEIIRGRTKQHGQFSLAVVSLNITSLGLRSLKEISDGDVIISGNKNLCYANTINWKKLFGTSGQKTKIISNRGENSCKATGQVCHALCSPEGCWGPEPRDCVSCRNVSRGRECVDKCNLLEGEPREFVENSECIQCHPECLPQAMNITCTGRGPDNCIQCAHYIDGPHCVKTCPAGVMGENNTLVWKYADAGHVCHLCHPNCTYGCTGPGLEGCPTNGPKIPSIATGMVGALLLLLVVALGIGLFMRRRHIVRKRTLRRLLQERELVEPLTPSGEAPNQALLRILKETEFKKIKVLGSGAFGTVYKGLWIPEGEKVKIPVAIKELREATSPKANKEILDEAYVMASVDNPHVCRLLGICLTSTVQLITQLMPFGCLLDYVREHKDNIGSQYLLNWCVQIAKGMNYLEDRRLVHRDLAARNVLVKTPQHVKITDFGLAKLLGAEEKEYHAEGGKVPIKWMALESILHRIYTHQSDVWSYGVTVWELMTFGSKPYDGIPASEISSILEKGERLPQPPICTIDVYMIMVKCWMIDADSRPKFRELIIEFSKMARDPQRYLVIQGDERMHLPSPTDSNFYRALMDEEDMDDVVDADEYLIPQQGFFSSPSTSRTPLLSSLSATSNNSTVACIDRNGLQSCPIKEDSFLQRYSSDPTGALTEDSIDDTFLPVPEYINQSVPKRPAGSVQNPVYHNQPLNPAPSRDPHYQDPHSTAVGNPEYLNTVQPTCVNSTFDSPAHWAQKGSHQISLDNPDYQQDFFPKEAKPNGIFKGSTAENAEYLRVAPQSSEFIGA
smiles,measurement,setting,value
CCOc1cc([C@@H](CS(C)(=O)=O)N2C(=O)c3cccc(NC(C)=O)c3C2=O)ccc1OC,AC50,[1],> 30 µM
same,AC50,[2],> 30 µM
same,AC50,Acetylcholinesterase,> 30 µM
same,AC50,D(1A) dopamine receptor,> 30 µM
same,AC50,Thromboxane A2 receptor,> 30 µM
same,AC50,[3],> 30 µM
same,AC50,[4],> 30 µM
same,AC50,Glucocorticoid receptor,> 30 µM
same,AC50,[5],> 50 µM
same,AC50,[6],> 30 µM
